These results are taken from patent US12663426B2, “Method and composition for measurement of nitric oxide” (The University of Chicago, priority 2019, dated 2026).

Common to all, as to format: cell-based
The test system of assay [1] is T-47D cells. Briefly: Golgi fragmentation (Giantin/GM130 immunofluorescence). The method, then:
(§1) Immunofluorescence staining. Cells were cultured on a glass bottom 3.5 cm imaging dish to reach 60% confluency. […] Treated cells were then washed three times with 1× PBS (pH 7.4) and fixed using, 4% paraformaldehyde at room temperature (RT, 15 min). Subsequently, cells were permeabilized using 0.25% triton X-100 followed by blocking using 3% BSA in 1× PBS. Cells were then incubated with indicated primary antibodies—mouse monoclonal anti-eNOS antibody (SantaCruz Cat #sc-376751), Polyclonal Anti-S-nitrosocysteine antibody (Abeam Cat #ab94930 or Abeam Cat #ab50185), Rabbit polyclonal Anti-Giantin antibody (Abeam Cat #ab24586) or Mouse monoclonal Anti-GM130 antibody (BD Biosciences Cat #610822) in blocking buffer (3% BSA in 1× 4 PBS) for 1 hour at RT. Cells were then washed for 5 min with 1× PBS (3×). Respective secondary antibodies conjugated with either Alexafluor 488 or Alexafluor 647 were added to the cells and incubated for 1 hr at RT. Cells were washed again to remove excess secondary antibody using 1× PBS for 5 min (3×). Hoechst 33342 (5 μM) was added 10 min prior to imaging to stain nuclear DNA. Cells were then imaged on a Leica SP8 laser scanning confocal microscope using excitation wavelengths 405 nm (Hoechst), 488 nm (AlexaFluor 488) and 647 nm (AlexaFluor 647). Images were processed using Fiji and maximum z-projection of 2-3 z-planes are used in representative images.
Golgi fragmentation was quantified with immunofluorescence images of Golgi structural protein Giantin. Merge images of Hoechst and Giantin allowed identification of cell numbers and enumeration of Golgi fragments per cell (≤3 Golgi fragments per cell was considered intact Golgi) (Lee, J. E. et al. Dependence of Golgi apparatus integrity on nitric oxide in vascular cells: implications in pulmonary arterial hypertension. Am. J. Physiol. Heart Circ. Physiol. 300, H1141-58 (2011)). […]
Small molecule inhibitors were then screened to identify the molecular pathway by which NOS3 inhibition induces Golgi fragmentation. This is based on the rationale that inhibiting a protein on this pathway should also block methylene blue-induced Golgi fragmentation. […] A range of small molecule inhibitors against kinases that have previously ascribed roles in Golgi fragmentation were then used. DNA-PK with NU7441 was ruled out (Farber-Katz, S. E. et al. DNA damage triggers Golgi dispersal via DNA-PK and GOLPH3. Cell 156, 413-427 (2014)). Compounds containing an indirubin core have broad specificity for Cyclin dependent kinases (CDKs) and Src kinases. […] CDK1, CDK2 and CDK5 were ruled out, using (R)-Roscovitine (Rosco).

For assay [2], the target named is T1, NOS3 (Homo sapiens, UniProt P29474).
T1 construct: endogenous, basal NOS3 activity was estimated at each of these sub-cellular locations in T-47D cells; endogenous in cells; host or cells: T-47D cells
The assay can be described thus: Steady state NOS3 activity imaging at plasma membrane and TGN with NOckout probes. Particulars: T-47D cells.
Method: Image acquisition. T-47D cells were maintained as mentioned above in the cell culture section. Cells were washed twice with Hank's balanced salt solution (HBSS) before incubating them with 500 nM NOckout^TGN for 30 min or 500 nM NOckout^PM for 10 min at 37° C. followed by 3 washes with HBSS solution to remove any unloaded sensors. For steady state imaging (FIG. 1), cells were treated with indicated agonists or antagonists for 1 hr in complete RPMI-1640 medium. Care was taken not to exceed the final concentration of DMSO>1% at any time of the experiment. Additionally, 1% DMSO was used as a negative control in untreated (Basal) cells. […] The cells are then washed and imaged (FIG. 1f).
For simultaneous imaging cells were treated with 500 nM NOckout^TGN for 30 min where last 10 min cells were co-incubated with 500 nM NOckout^PM. In order to achieve lowest signal (PTIO, FIG. 1e-f) or to achieve bleaching profile (PTIO, FIG. 3e) cells were pre-treated with 500 μM PTIO for 15 minutes. Images were captured on a Laser scanning confocal Leica SP8 microscope using 63×, 1.4UV NA objective. Desired excitation and emission wavelengths was achieved using white light laser along with notch filters and acousto-optical tunable filters. A488, DAR and A647 were imaged using the following settings—Alexa488 (λex=488 nm, λem=500 nm to 540 nm), DAR (λex=554 nm, λem=565 nm to 610 nm) and Alexa647 (λex=647 nm, λem=665 nm to 710 nm).
Image analysis was performed using Fiji (Schindelin, J. et al. Fiji: an open-source platform for biological-image analysis. Nat Methods 9, 676-682 (2012)). Auto-fluorescence was subtracted from images for ratiometric analysis. For representation, images were further processed by smooth and despeckle functions. In order to present G/B or G/R images, a mask for each image was constructed using Otsu thresholding method, and mask-multiplied images were used for division. The ROI plugin in Fiji was used to select either TGN (Alexa647 channel) or PM (Alexa488 channel) and these ROIs were recalled in DAR channel to measure intensity in all three channels.
Next, endogenous, basal NOS3 activity was estimated at each of these sub-cellular locations in T-47D cells without explicitly activating NOS3. To do this, the ratiometric NOckout^PM response, i.e. the G/B ratio, was first measured under conditions where cells were depleted of NO using the NO scavenger 2-phenyl-4,4,5,5-tetramethylimidazoline-1-oxyl 3-oxide (PTIO, 300 μM) (Goldstein, S., Russo, A. & Samuni, A. Reactions of PTIO and carboxy-PTIO with *NO, *NO2, and O2−*. J Biol. Chem. 278, 50949-50955 (2003)). […] These two extreme cases provide the minimum and maximum G/B signals afforded by NOckout^PM in the cell (FIG. 1e-f). The G/B values under any subsequent condition are normalized to the maximum G/B signal. […]

Assay [3] deals with S-nitrosylation at the Golgi. Briefly: Anti-S-nitrosocysteine immunostaining of T-47D cells. The method, then:
as §1
In order to address the significance of the […] population of NOS3 at the TGN, T-47D cells were immunostained using an antibody specific to S-nitrosocysteine.
Similar observations were made in MCF-7 cells upon NO depletion (FIG. 23). These studies reveal that the Golgi is a cellular hot-spot for 5-nitrosylation of proteins by NOS3, where it is essential for the maintenance of Golgi architecture in breast cancer cells. […] In addition to Golgi fragmentation, NO scavenging also hampered cell growth by inducing cell sensescence (FIG. 24).

On to `CC[C@H](CO)Nc1nc(NCc2ccccc2)c2ncn(C(C)C)c2n1` [(R)-Roscovitine], for which the “effect on methylene blue (MB)-induced Golgi fragmentation” value (“effect on methylene blue” below) in assay [1] is recorded as “ruled out”. Consider `Nc1ncnc2c1ncn2[C@@H]1O[C@H](COP(=O)(O)OP(=O)(O)OP(=O)(O)O)[C@@H](O)[C@H]1O` [ATP], for which the “G/B and G/R values of NOckout probes (NOS3 activity)” value (from here on “G/B and G/R values of NOckout probes”) in assay [2] was “significantly higher G/B and G/R ratios”. Turning to `C[C@]12CC[C@@H]3c4ccc(O)cc4CC[C@H]3[C@@H]1CC[C@@H]2O` [E2, 17 β-Estradiol], the “G/B and G/R values of NOckout probes” value in assay [2] is given as “selectively activated NOS3 only at the plasma membrane”.

Regarding `COC(=O)[C@@H](N)CCCNC(=N)N[N+](=O)[O-]` [L-NAME, L-N^G-Nitroarginine methyl ester], the “Golgi fragmentation by treatment alone” value in assay [1] is listed as “underwent fragmentation”. Also, the “G/B and G/R values of NOckout probes” value in assay [2] is recorded as “reflected those of PTIO-treated cells”. Further, the “S-nitrosylation at the Golgi” value in assay [3] is “dramatically reduced”. In the case of `C/C1=C/C(=O)O[C@@H]2C[C@@H](CC[C@H](C)/C=C\CC1)O[C@@](O)([C@@H]1CSC(=O)N1)C2` [Latrunculin B], in assay [1], the “effect on methylene blue” value was “completely blocked”. Turning to `CN(C)c1ccc2nc3ccc(=[N+](C)C)cc-3sc2c1` [Methylene Blue], the “Golgi fragmentation by treatment alone” value in assay [1] was “fragmented morphology”.

Consider `O=c1cc(N2CCOCC2)oc2c(-c3cccc4c3sc3ccccc34)cccc12` [NU7441], for which the “effect on methylene blue” value in assay [1] was “ruled out”.

As for `CC1(C)N([O])C(c2ccccc2)=[N+]([O-])C1(C)C` [PTIO, 2-phenyl-4,4,5,5-tetramethylimidazoline-1-oxyl 3-oxide], the “Golgi fragmentation by treatment alone” value in assay [1] is listed as “fragmented morphology”. For the same compound, in assay [3], the “S-nitrosylation at the Golgi” value is “greatly diminished”.

With `CN(C)S(=O)(=O)c1ccc2c(c1)/C(=C/c1cc3c([nH]1)CCCC3)C(=O)N2` [SU6656], in assay [1], the “reduction of MB-induced Golgi fragmentation” value is listed as ~50%. With `CC1(C)CC(O)CC(C)(C)N1[O]` [TEMPOL], the “Golgi fragmentation by treatment alone” value in assay [1] is reported as “none of these treatments fragmented the Golgi”. Consider `C[C@@H](N)[C@H]1CC[C@H](C(=O)Nc2ccncc2)CC1` [Y-27632], for which the “effect on methylene blue” value in assay [1] is given as “not mediated by apoptosis”. Same read-out and setting: the entry for `O=C1Nc2ccccc2/C1=C1/Nc2ccccc2/C1=N\O` [indirubin-3′-monoxime] is “completely blocked”. Consider `O=C1Nc2ccccc2/C1=C1/Nc2ccccc2/C1=N\OCC(O)CO` (centres unmarked) [indirubin-e804], for which the “effect on methylene blue” value in assay [1] is listed as “completely blocked”. Consider Hemoglobin, for which, in assay [1], the “Golgi fragmentation by treatment alone” value is given as “fragmented morphology”.
